Measurements taken from paper PMC4322967, “Afatinib circumvents multidrug resistance via dually inhibiting ATP binding cassette subfamily G member 2 in vitro and in vivo” (Oncotarget, 2014).

Experiments:
Format in all cases: cell-based
[1] = target: T1, ABCG2 (Homo sapiens, UniProt Q9UNQ0); test: vanadate-sensitive ATPase assay in crude membranes; also 5D3 shift and PhA efflux inhibition in HEK293/ABCG2 cells; set-up: crude membranes from ABCG2-expressing High Five insect cells
T1 sequence (Q9UNQ0 1-655): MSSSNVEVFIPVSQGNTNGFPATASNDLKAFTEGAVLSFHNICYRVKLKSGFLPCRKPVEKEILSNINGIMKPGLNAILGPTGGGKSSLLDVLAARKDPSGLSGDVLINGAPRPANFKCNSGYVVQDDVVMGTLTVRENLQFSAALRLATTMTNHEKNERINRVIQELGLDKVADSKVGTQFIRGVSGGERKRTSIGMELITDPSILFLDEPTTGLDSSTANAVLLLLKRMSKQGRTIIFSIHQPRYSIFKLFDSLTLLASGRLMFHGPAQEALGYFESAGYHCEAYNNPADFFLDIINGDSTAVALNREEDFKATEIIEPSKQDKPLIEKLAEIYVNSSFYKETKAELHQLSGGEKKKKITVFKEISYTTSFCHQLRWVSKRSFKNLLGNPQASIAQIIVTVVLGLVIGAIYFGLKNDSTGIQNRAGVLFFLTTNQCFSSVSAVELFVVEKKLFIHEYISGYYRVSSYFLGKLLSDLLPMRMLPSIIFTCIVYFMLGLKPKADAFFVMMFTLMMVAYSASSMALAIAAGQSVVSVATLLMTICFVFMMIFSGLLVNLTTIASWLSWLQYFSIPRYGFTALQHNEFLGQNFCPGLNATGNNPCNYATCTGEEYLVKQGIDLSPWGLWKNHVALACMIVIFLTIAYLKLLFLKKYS

[2] = target: T1, ABCG2; set-up: ABCG2-stably transfected HEK293 cells
[3] = target: T1, ABCG2; test: 5D3 conformational antibody shift at […], flow cytometry; set-up: ABCG2-stably transfected HEK293 cells
[4] = target: T1, ABCG2; test: flow cytometry efflux of […] PhA in HEK293/ABCG2 versus pcDNA3 cells; set-up: HEK293 cells stably transfected with ABCG2
[5] = target: T1, ABCG2; test: 5D3 conformational antibody shift at […], flow cytometry; set-up: ABCG2-stably transfected HEK293 cells; remark: listed apart in the source

CN(C)C/C=C/C(=O)Nc1cc2c(Nc3ccc(F)c(Cl)c3)ncnc2cc1O[C@H]1CCOC1 [Afatinib]
vanadate-sensitive ATPase assay in crude membranes; also 5D3 shift and PhA efflu [1]: afatinib was found to inhibit the ATPase activity of ABCG2 in a dose dependent manner

C#Cc1cccc(Nc2ncnc3cc(OCCOC)c(OCCOC)cc23)c1 [erlotinib]
5D3 conformational antibody shift at 10 μM, flow cytometry [2]: Other known ABCG2 inhibitors (including FTC, tariquidar and erlotinib) tested were also shown to notably increase 5D3 labeling

COc1ccc2c3c([nH]c2c1)[C@H](C=C(C)C)N1C(=O)[C@@H]2CCCN2C(=O)[C@@H]1C3 [fumitremorgin C]
5D3 conformational antibody shift at 5 μM, flow cytometry [3]: Other known ABCG2 inhibitors (including FTC, tariquidar and erlotinib) tested were also shown to notably increase 5D3 labeling

C=Cc1c(C)c2cc3nc(c4c5[nH]c(cc6nc(cc1[nH]2)C(C)=C6CC)c(C)c5C(=O)[C@@H]4C(=O)OC)[C@@H](CCC(=O)O)[C@@H]3C [pheophorbide A]
flow cytometry efflux of 1 μM PhA in HEK293/ABCG2 versus pcDNA3 cells [4]: fluorescent ABCG2 probe substrate (pheophorbide A, PhA) for efflux was studied in HEK293/ABCG2 cells by flow cytometry analysis

COc1cc2c(cc1OC)CN(CCc1ccc(NC(=O)c3cc(OC)c(OC)cc3NC(=O)c3cnc4ccccc4c3)cc1)CC2 [tariquidar]
5D3 conformational antibody shift at 1 μM, flow cytometry [5]: Other known ABCG2 inhibitors (including FTC, tariquidar and erlotinib) tested were also shown to notably increase 5D3 labeling
